Data: PubChem BioAssay (NCI)
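GI50 is the concentration that inhibits growth by half. TGI: total growth inhibition.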

Assays:
Experiment in all cases: NCI-60 cell line screen, 384-well format
[1] = tested on: HCC-2998 colon
[2] = tested on: HT29 colon
[3] = tested on: U251 glioblastoma
[4] = tested on: NCI-H23 lung
[5] = tested on: SK-MEL-28 melanoma
[6] = tested on: OVCAR-5 ovarian
[7] = tested on: A498 renal
[8] = tested on: HOP-62 NSCLC
[9] = tested on: HL-60(TB) leukemia
[10] = tested on: M14 melanoma
[11] = tested on: NCI-H226 lung
[12] = tested on: A549 NSCLC
[13] = tested on: SK-OV-3 ovarian
[14] = tested on: MCF7 breast
[15] = tested on: HCT-15 colon
[16] = tested on: EKVX NSCLC
[17] = tested on: MOLT-4 leukemia
[18] = tested on: TK-10 renal
[19] = tested on: HOP-92 NSCLC
[20] = tested on: LOX IMVI melanoma
[21] = tested on: IGROV1 ovarian
[22] = tested on: KM12 colon
[23] = tested on: OVCAR-3 ovarian
[24] = tested on: COLO 205 colon
[25] = tested on: NCI/ADR-RES ovarian
[26] = tested on: MALME-3M melanoma
[27] = tested on: HCT-116 colon
[28] = tested on: RPMI-8226 leukemia
[29] = tested on: CAKI-1 renal
[30] = tested on: SNB-19 CNS
[31] = tested on: NCI-H522 lung
[32] = tested on: SN12C renal
[33] = tested on: SF-295 CNS
[34] = tested on: SK-MEL-5 melanoma
[35] = tested on: NCI-H460 NSCLC
[36] = tested on: SF-539 CNS
[37] = tested on: HS 578T breast
[38] = tested on: ACHN renal
[39] = tested on: T-47D breast
[40] = tested on: SF-268 CNS
[41] = tested on: SNB-75 CNS
[42] = tested on: OVCAR-4 ovarian
[43] = tested on: BT-549 breast
[44] = tested on: UACC-62 melanoma
[45] = tested on: MDA-MB-435 melanoma
[46] = tested on: PC-3 prostate
[47] = tested on: OVCAR-8 ovarian
[48] = tested on: RXF 393 renal
[49] = tested on: UACC-257 melanoma
[50] = tested on: MDA-MB-468 breast
[51] = tested on: SR leukemia
[52] = tested on: NCI-H322M lung
[53] = tested on: MDA-MB-231 breast
[54] = tested on: DU-145 prostate

`COc1cccc2[nH]c3c4c(c5c(c3c12)C(=O)N(CN1CCN(C)CC1)C5=O)CCC4` gave a GI50 [1] of 21 µM, a TGI [1] of 66.1 µM and a GI50 [2] of 13.2 µM. The TGI [2] was 27.1 µM, the GI50 [3] was 12.1 µM and the TGI [3] was 24.6 µM. It also gave a GI50 [4] of 14 µM, a TGI [4] of 27.3 µM and a GI50 [5] of 14.5 µM. For the same compound, the TGI [5] was 28.3 µM, the GI50 [6] was 20.7 µM and the TGI [6] was 48.7 µM. For the same compound, the GI50 [7] was 9.22 µM, the TGI [7] was 21.5 µM and the GI50 [8] was 11.5 µM. The TGI [8] was 24 µM, the GI50 [9] was 10.7 µM and the TGI [9] was 22.7 µM. It also gave a GI50 [10] of 14.3 µM, a TGI [10] of 28.7 µM and a GI50 [11] of 15.9 µM. It also gave a TGI [11] of 33.2 µM, a GI50 [12] of 12.5 µM and a TGI [12] of 26.3 µM. It also gave a GI50 [13] of 11.2 µM, a TGI [13] of 23.6 µM and a GI50 [14] of 12.5 µM. For the same compound, the TGI [14] was 26.9 µM, the GI50 [15] was 11.5 µM and the TGI [15] was 24.8 µM. The GI50 [16] was 15.4 µM, the TGI [16] was 29.1 µM and the GI50 [17] was 6.13 µM. It also gave a TGI [17] of 19.1 µM, a GI50 [18] of 10.7 µM and a TGI [18] of 22.7 µM. The GI50 [19] was 17.3 µM, the TGI [19] was 31.3 µM and the GI50 [20] was 13.7 µM. The TGI [20] was 26.9 µM, the GI50 [21] was 12.5 µM and the TGI [21] was 29.6 µM. For the same compound, the GI50 [22] was 15.8 µM, the TGI [22] was 34.2 µM and the GI50 [23] was 13.2 µM. It also gave a TGI [23] of 26.7 µM, a GI50 [24] of 15.4 µM and a TGI [24] of 48.5 µM. It also gave a GI50 [25] of 8.24 µM, a TGI [25] of 21 µM and a GI50 [26] of 13.5 µM. The TGI [26] was 26.5 µM, the GI50 [27] was 11.6 µM and the TGI [27] was 24.4 µM. For the same compound, the GI50 [28] was 13.3 µM, the TGI [28] was 26.2 µM and the GI50 [29] was 10.9 µM. The TGI [29] was 23.2 µM, the GI50 [30] was 12.3 µM and the TGI [30] was 24.8 µM. For the same compound, the GI50 [31] was 7.53 µM, the TGI [31] was 21.5 µM and the GI50 [32] was 12.5 µM. The TGI [32] was 40.6 µM, the GI50 [33] was 13.9 µM and the TGI [33] was 27.2 µM. The GI50 [34] was 3.44 µM, the TGI [34] was 14.3 µM and the GI50 [35] was 6.97 µM. It also gave a TGI [35] of 19.8 µM, a GI50 [36] of 9.75 µM and a TGI [36] of 21.8 µM. The GI50 [37] was 15 µM, the TGI [37] was 29 µM and the GI50 [38] was 14.9 µM. The TGI [38] was 30.5 µM, the GI50 [39] was 12.3 µM and the TGI [39] was 32 µM. It also gave a GI50 [40] of 15.5 µM, a TGI [40] of 29.7 µM and a GI50 [41] of 13 µM. The TGI [41] was 25.9 µM, the GI50 [42] was 7.56 µM and the TGI [42] was 19.5 µM. For the same compound, the GI50 [43] was 15.8 µM, the TGI [43] was 29.6 µM and the GI50 [44] was 12.5 µM. For the same compound, the TGI [44] was 25.3 µM, the GI50 [45] was 13.7 µM and the TGI [45] was 29.1 µM. The GI50 [46] was 11.5 µM, the TGI [46] was 23.8 µM and the GI50 [47] was 9.47 µM. The TGI [47] was 23.1 µM, the GI50 [48] was 14.2 µM and the TGI [48] was 27.3 µM. For the same compound, the GI50 [49] was 17.8 µM, the TGI [49] was 33 µM and the GI50 [50] was 8.27 µM. It also gave a TGI [50] of 21.1 µM, a GI50 [51] of 1.83 µM and a TGI [51] of 4.8 µM. For the same compound, the GI50 [52] was 14.4 µM, the TGI [52] was 27.8 µM and the GI50 [53] was 16.1 µM. It also gave a TGI [53] of 29.9 µM, a GI50 [54] of 14.4 µM and a TGI [54] of 27.9 µM.
